Legend:
[1] = tested on: UV-induced squamous cell carcinoma (SCC), actinic keratosis (AK), or pre-AK lesions; test: UV-induced epidermal neoplasia in SKH-1 mice, Example 4 (simultaneous initiation, 17 weeks); type: in vivo; settings: 0.1% formulation, twice per week; for Avg. Disease Score: UV 17 weeks, every SCC, AK and pre-AK lesion scored 1; for % Disease / Diseased (number of mice): UV five days per week for 17 weeks
Text: (§1) Female SKH-1 mice 9-10 weeks old were obtained from Charles River (Raleigh, N.C.) and housed in a room with controlled temperatures and humidity and alternating 12-hour light and dark cycles. The room is lit with fluorescent lights covered by yellow sleeves from EncapSulite International, Inc. (Rosenberg, Tex.) to eliminate all ambient UV radiation. The mice were fed with a 12% Corn Oil Purified Diet from Purina Test Diet (Richmond, Va.) and water, ad libitum. The animals were maintained in facilities approved by the Association for the Assessment and Accreditation of Laboratory Animal Care International and in accordance with current United States Department of Agriculture, Department of Health and Human Services, and National Institutes of Health regulations and standards.
(§2) A small group of mice were not exposed to UV and were used as negative controls. The other mice were chronically UV irradiated. After randomization the mice were lightly anesthetized with halothane and adjustable collars made of hook and loop fastener approximately 10 mm wide and 70 mm long were placed around the mouse's neck to prevent oral ingestion of the IRM. Unless otherwise indicated, thirty minutes before UV exposure mice were topically dosed with 30 μL of either (1) vehicle formulation, (2) IRM formulation, or (3) an SPF 30 sunscreen (NEUTROGENA SPF30 Sunblock with PARSOL 1789), two times per week for a total of 15-18 weeks on the dorsal surface in an area approximately 6 cm^2. Approximately four hours after dosing, the topical treatment (i.e, vehicle formulation; IRM formulation, or sunscreen) was washed off using a dilute soap solution.
(§3) Mice were placed in a standard plexiglass rat cage, 9-10 at a time, that was separated into 12 individual compartments with plexiglass dividers and placed on a shelf 14 inches below the light source without wire cage tops. The mice were exposed to UV radiation 5 times per week (Monday thru Friday) for an average of 15-18 weeks. The UV radiation was provided by a bank of six FS40 lamps (National Biological Corporation, Twinsburg, Ohio), filtered by a Kodacel filter (140 μm thick K6808 cellulose triacetate film; Eastman Kodak, Rochester, N.Y.) that transmits radiation having a wavelength from about 293 nm to about 400 nm. The Kodacel filter was aged 4-6 hours before use. The lights emit UVB (21%) and UVA (79%) light with a peak wavelength of 313 nm, as measured using a radiometer Model PMA 2200 from Solar Light Company (Philadelphia, Pa.) with a PMA 2101 detector for UVB and PMA2110 detector for UVA.
(§4) The dose of UVB irradiation was measured by MED (minimal erythemal dose). By using MED, a relatively constant incident dose of UV was maintained over time. The initial dose of UVB to the mice was 12.6 mJ/cm^2 (0.6 MED) and the average total dose of UVB was 3000-5200 mJ/cm^2. An increase of 10-20% of the MED dose per week was needed due to acclimation of the mice.
(§5) All mice were distinguished from one another by a tattoo placed on the tail. The development and appearance of tumors were noted weekly and recorded starting at about 14-18 weeks.
UV dosing and IRM dosing were initiated simultaneously. Daily UV dosing was performed five days per week for 17 weeks. IRM dosing was performed twice per week with the compounds indicated in Table 9, each in a 0.1% formulation. SPF dosing was performed five times per week.
An additional group of mice were topically dosed twice per week with 0.1% formulation of a non-IRM control compound: 1,5-dihydro-1-(2-methylpropyl)-4H-imidazo[4,5-c]quinolin-4-one, the synthesis of which is described in U.S. Pat. No. 4,698,348, Example 71, formulated as shown in Table 8. The non-IRM compound is structurally related to, but outside the scope of, IRM compounds as provided above. […] Mice in the non-IRM group were UV dosed five times per week for 18 weeks. […]

[2] = tested on: actinic keratosis (AK) lesions; test: Clinical treatment of actinic keratosis lesions and recurrence at follow-up, Example 5; type: in vivo
Procedure: Subjects with four to eight clinically typical, visible, discrete actinic keratosis (AK) lesions in a 25 cm^2 treatment area were randomized in a 1:1 ratio to receive either a 5% cream formulation of IRM14 (ALDARA, 3M Company, St. Paul, Minn.) or vehicle cream once daily three days per week. Subjects received treatment for sixteen weeks even if clinical evidence of lesion clearance was observed. Subjects were evaluated at an Evaluation visit eight weeks after the treatment period concluded.
Subjects were instructed to administer a single application of cream (vehicle or IRM14, as assigned) to the treatment area at approximately the same time of day three days per week. The subjects were instructed to wash the treatment area prior to applying the cream, rub the cream into the treatment area, and then leave the cream in place for at least eight hours without occlusion.
Subjects with no (zero) clinically visible AK lesions in the 25 cm^2 treatment area at the Evaluation visit were considered complete responders. 117 of 242 (48.3%) subjects receiving IRM14 were complete responders; 18 of 250 (7.2%) vehicle-treated subjects were complete responders.
Complete responders were re-evaluated for recurrence of AK lesions at a Follow-up visit between 12 and 18 months after the Evaluation visit. Subjects received no IRM14 treatment between the Evaluation visit and the Follow-up visit. […]

cytokines = test: Induction of production and secretion of cytokines
[3] = tested on: UV-induced squamous cell carcinoma (SCC), actinic keratosis (AK), or pre-AK lesions; test: UV-induced epidermal neoplasia in SKH-1 mice, Example 1 (UV and IRM dosing initiated simultaneously, 15 weeks); type: in vivo; settings: 0.1% formulation in Vehicle 1, topical twice per week, UV five days per week for 15 weeks
Text: (§6) Female SKH-1 mice 9-10 weeks old were obtained from Charles River (Raleigh, N.C.) and housed in a room with controlled temperatures and humidity and alternating 12-hour light and dark cycles. The room is lit with fluorescent lights covered by yellow sleeves from EncapSulite International, Inc. (Rosenberg, Tex.) to eliminate all ambient UV radiation. The mice were fed with a 12% Corn Oil Purified Diet from Purina Test Diet (Richmond, Va.) and water, ad libitum. […]
(§7) Mice were placed in a standard plexiglass rat cage, 9-10 at a time, that was separated into 12 individual compartments with plexiglass dividers and placed on a shelf 14 inches below the light source without wire cage tops. […] The lights emit UVB (21%) and UVA (79%) light with a peak wavelength of 313 nm, as measured using a radiometer Model PMA 2200 from Solar Light Company (Philadelphia, Pa.) with a PMA 2101 detector for UVB and PMA2110 detector for UVA.
(§8) The dose of UVB irradiation was measured by MED (minimal erythemal dose). […]
(§9) All mice were distinguished from one another by a tattoo placed on the tail. The development and appearance of tumors were noted weekly and recorded starting at about 14-18 weeks. […]

[4] = tested on: UV-induced squamous cell carcinoma (SCC), actinic keratosis (AK), or pre-AK lesions; test: UV-induced epidermal neoplasia in SKH-1 mice, Example 3 (simultaneous initiation, 18 weeks); type: in vivo; settings: for % Disease: topical twice per week, UV five days per week for 18 weeks; for Avg. Disease Score: twice per week, UV 18 weeks, SCC + AK + pre-AK lesion score (Table 5)
Text: as §1, §2, §3, §4, §5
Formulations of IRM1 and IRM2 were prepared using Vehicle 1. UV dosing and IRM dosing were initiated simultaneously. UV dosing was performed five days per week for 18 weeks.
After 18 weeks, the mice were subjected to gross inspection to determine the presence of a disease state, i.e., squamous cell carcinoma (SCC), actinic keratosis (AK), or pre-AK lesions.
The disease state of each mouse was scored by measuring the size and/or number of lesions present on the mouse. SCC lesions and AK lesions of at least 1 mm in diameter were given a score of 1.
The SCC lesion score, AK lesion score, and the pre-AK lesion score (according to Table 5) were added to provide a total disease score for each mouse. Table 6 includes the average disease score for all of the mice in each treatment group.

[5] = tested on: UV-induced squamous cell carcinoma (SCC), actinic keratosis (AK), or pre-AK lesions; test: UV-induced epidermal neoplasia in SKH-1 mice, Example 2 (UV dosing six weeks before IRM dosing, 15 weeks); type: in vivo; settings: topical twice per week, UV for six weeks before IRM dosing, UV five days per week for 15 weeks
Text: as §6, §7, §8, §9

SMILES | Avg. Disease Score [1] | % Disease [1] [%] | Diseased (number of mice) [1] | other results
CCOCc1nc2c(N)nc3ccccc3c2n1NC(C)C [IRM13, 2-ethoxymethyl-N^1-isopropyl-1H-imidazo[4,5-c]quinoline-1,4-diamine] | 3.33 ± 1.54 | 67 | 4 | 
CC(C)Cn1cnc2c(N)nc3ccccc3c21 [IRM14, 1-(2-methylpropyl)-1H-imidazo[4,5-c]quinolin-4-amine] |  |  |  | complete responders (no clinically visible AK lesions in the 25 cm^2 treatment area at the Evaluation visit) ([2]; 5% cream once daily three days per week for sixteen weeks, evaluated eight weeks after treatment, 117 of 242 subjects): 48.3%; AK Recurrence Rate ([2]; complete responders at Follow-up visit 12 to 18 months after Evaluation visit, no treatment in between, 77 IRM14-treated): 24.7%
CCCCc1nc2c(N)nc3ccccc3c2n1CCS(=O)(=O)CCC [IRM12, 2-butyl-1-[2-(propylsulfonyl)ethyl]-1H-imidazo[4,5-c]quinolin-4-amine] | 0.00 ± 0.00 | 0 | 0 | 
COCCc1nc2c(N)nc3c(c2n1CC(C)(C)NS(C)(=O)=O)CCCC3 [IRM7, N-{2-[4-amino-2-(2-methoxyethyl)-6,7,8,9-tetrahydro-1H-imidazo[4,5-c]quinolin-1-yl]-1,1-dimethylethyl}methanesulfonamide] | 3.90 ± 1.30 | 60 | 6 | 
Nc1nc2ccccc2c2c1ncn2CCOCCCc1cccnc1 [IRM10, 1-{2-[3-(3-pyridyl)propoxy]ethyl}-1H-imidazo[4,5-c]quinolin-4-amine] | 2.50 ± 1.07 | 70 | 7 | 
Nc1nc2ccccc2c2c1nc1n2CCCC1 [IRM3, 8,9,10,11-tetrahydropyrido[1′,2′:1,2]imidazo[4,5-c]quinolin-6-amine] | 1.00 ± 0.54 | 30 | 3 | 
CCc1nc2c(N)nc3ccccc3c2n1CCCCNC(=O)C(C)C [IRM5, N-[4-(4-amino-2-ethyl-1H-imidazo[4,5-c]quinolin-1-yl)butyl]-2-methylpropanamide] | 5.40 ± 1.91 | 60 | 6 | 
CC(C)Cn1cnc2c(=O)[nH]c3ccccc3c21 [non-IRM, 1,5-dihydro-1-(2-methylpropyl)-4H-imidazo[4,5-c]quinolin-4-one] |  |  |  | induction of production and secretion of cytokines (cytokines): does not induce the production and secretion of cytokines
CCCCc1nc2c(N)nc3ccccc3c2n1CCCS(C)(=O)=O [IRM11, 2-butyl-1-[3-(methylsulfonyl)propyl]-1H-imidazo[4,5-c]quinolin-4-amine] | 0.70 ± 0.47 | 20 | 2 | 
CCCc1nc2c(N)nc3ccccc3c2n1CCCCNC(=O)NC(C)C [IRM8, N-[4-(4-amino-2-propyl-1H-imidazo[4,5-c]quinolin-1-yl)butyl]-N′-isopropylurea] | 3.13 ± 0.89 | 75 | 6 | 
CC(C)Cn1cnc2c(N)nc3cccnc3c21 [IRM1, 1-(2-methylpropyl)-1H-imidazo[4,5-c][1,5]naphthyridin-4-amine] |  |  |  | % Disease (percentage of mice exhibiting a disease state) [3]: 0%; % Disease ([4]; 0.01% formulation): 71%; Avg. Disease Score ([4]; 0.01% formulation): 2.86 ± 0.82; % Disease ([4]; 0.1% formulation): 50%; Avg. Disease Score ([4]; 0.1% formulation): 0.66 ± 0.33
CCOCc1nc2c(N)nc(C)c(C)c2n1CC(C)(C)NC(=O)NC1CCCCC1 [IRM9, N-{2-[4-amino-2-(ethoxymethyl)-6,7-dimethyl-1H-imidazo[4,5-c]pyridin-1-yl]-1,1-dimethylethyl}-N′-cyclohexylurea] | 2.00 ± 0.89 | 60 | 3 | 
CCOCc1nc2c(N)nc3ccccc3c2n1CC(C)(C)NC(=O)C1CCCCC1 [IRM4, N-{2-[4-amino-2-(ethoxymethyl)-1H-imidazo[4,5-c]quinolin-1-yl]-1,1-dimethylethyl}cyclohexanecarboxamide] | 0.67 ± 0.67 | 11 | 1 | 
Cc1nc2c(N)nc3cccnc3c2n1CC(C)C [IRM2, 2-methyl-1-(2-methylpropyl)-1H-imidazo[4,5-c][1,5]naphthyridin-4-amine] |  |  |  | % Disease (percentage of mice exhibiting a disease state) [3]: 11%; % Disease ([5]; 0.1% formulation): 63%; % Disease ([5]; 1.0% formulation): 50%; % Disease ([4]; 0.01% formulation): 71%; Avg. Disease Score ([4]; 0.01% formulation): 4.86 ± 1.81; % Disease ([4]; 0.1% formulation): 25%; Avg. Disease Score ([4]; 0.1% formulation): 0.6 ± 0.42
CCCc1nc2c(N)nc3ccccc3c2n1CC(C)(C)NS(C)(=O)=O [IRM6, N-[2-(4-amino-2-propyl-1H-imidazo[4,5-c]quinolin-1-yl)-1,1-dimethylethyl]methanesulfonamide] | 0.38 ± 0.38 | 13 | 1 | 

Reference: patent US8110582B2, “Prophylactic treatment of UV-induced epidermal neoplasia” (3M Innovative Properties Company, priority 2003, dated 2012)
